Assay results published in ChEMBL document CHEMBL4052831, “The Discovery of N-(1-Methyl-5-(trifluoromethyl)-1H-pyrazol-3-yl)-5-((6- ((methylamino)methyl)pyrimidin-4-yl)oxy)-1H-indole-1-carboxamide (Acrizanib), a VEGFR-2 Inhibitor Specifically Designed for Topical Ocular Delivery, as a Therapy for Neovascular Age-Related Macular Degeneration” (J Med Chem, 2018).
≈ marks a conversion by molar mass, not a printed value. Calls of active or inactive are those of the source. No cut-off for these calls is given here.

Columns and labels:
[1] = Intrinsic clearance in rat liver microsomes at 1 uM after 5 to 30 mins by LC-MS/MS analysis; format: ADME, microsome; conditions: read-out: CLH
Mus musculus = experiment: Antiangiogenic activity in C57BL/6 mouse laser-induced choroidal neovascularization model assessed as inhibition of neovascularization administered 1% suspension using 3.5 uL topical drop to both eyes every 3 hrs for 9 hrs by microscopic analysis
[2] = Cmax in posterior eye cup of Brown Norway rat administered 0.3% suspension using 4 uL topical drop to both eyes every 3 hrs for 9 hrs over 10 days and single drop to each eye on day 11 by LC-MS/MS analysis; format: ADME; conditions: topical or ocular, 4 uL of 0.3% suspension per eye
[3] = Cmax in posterior eye cup of Brown Norway rat administered 0.3% suspension using 4 uL topical drop to both eyes as single dose by LC-MS/MS analysis; format: ADME; conditions: topical or ocular, 4 uL of 0.3% suspension per eye
[4] = AUC (0 to last) in retina of Brown Norway rat administered 0.3% suspension using 4 uL topical drop to both eyes as single dose by LC-MS/MS analysis; format: ADME, tissue-based; design: dose 4 uL, time 0 - last, route ophthalmic; conditions: topical or ocular, 4 uL of 0.3% suspension per eye
[5] = AUC (0 to last) in cynomolgus monkey plasma administered 0.5% suspension using 30 uL topical drop to both eyes as single dose by LC-MS/MS analysis; format: ADME, Macaca fascicularis; design: dose 30 uL, route ophthalmic, time 0 - last; conditions: topical or ocular, 30 uL of 0.5% suspension per eye
[6] = molecular target: Proto-oncogene tyrosine-protein kinase receptor Ret (Homo sapiens, UniProt P07949); experiment: Inhibition of human RET
[7] = Cmax in retina of Brown Norway rat administered 0.3% suspension using 4 uL topical drop to both eyes as single dose by LC-MS/MS analysis; format: ADME, tissue-based; design: dose 4 uL, route ophthalmic; conditions: topical or ocular, 4 uL of 0.3% suspension per eye
[8] = molecular target: Platelet-derived growth factor receptor alpha (Homo sapiens, UniProt P16234); experiment: Inhibition of human PDGFRalpha
[9] = Cmax in cynomolgus monkey plasma administered 0.5% suspension using 30 uL topical drop to both eyes every 3 hrs for 9 hrs over 5 days and single drop to each eye on day 6 by LC-MS/MS analysis; format: ADME, Macaca fascicularis; conditions: topical or ocular, 30 uL of 0.5% suspension per eye
[10] = AUC (0 to last) in retina of Brown Norway rat administered 0.3% suspension using 4 uL topical drop to both eyes every 3 hrs for 9 hrs over 10 days and single drop to each eye on day 11 by LC-MS/MS analysis; format: ADME; conditions: topical or ocular, 4 uL of 0.3% suspension per eye
Rattus norvegicus [11] = experiment: Antiangiogenic activity in Brown Norway rat laser-induced choroidal neovascularization model assessed as inhibition of neovascularization administered 0.1% solution to both eyes every 3 hrs for 9 hrs by microscopic analysis; format: functional
Cynomolgus monkey [12] = experiment: Toxicity in cynomolgus monkey ocular fundus administered 0.5% suspension using 30 uL topical drop to both eyes every 3 hrs for 9 hrs over 5 days by indirect ophthalmoscopic method; design: species or system Macaca fascicularis; conditions: in vivo, topical_or_ocular
Plasma = experiment: Plasma concentration in cynomolgus monkey administered 0.5% suspension using 30 uL topical drop to both eyes every 3 hrs for 9 hrs over 5 days and single drop to each eye on day 6 by LC-MS/MS analysis; format: ADME, cell-free, Macaca fascicularis; conditions: topical_or_ocular
[13] = Plasma concentration in cynomolgus monkey administered 0.5% suspension using 30 uL topical drop to both eyes as single dose measured over 24 hrs by LC-MS/MS analysis; format: ADME, cell-free, Macaca fascicularis; conditions: topical or ocular, 30 uL of 0.5% suspension per eye
[14] = AUC (0 to last) in posterior eye cup of Brown Norway rat administered 0.3% suspension using 4 uL topical drop to both eyes as single dose by LC-MS/MS analysis; format: ADME; conditions: topical or ocular, 4 uL of 0.3% suspension per eye
Rattus norvegicus [15] = experiment: Antiangiogenic activity in Brown Norway rat laser-induced choroidal neovascularization model assessed as inhibition of neovascularization administered 0.09% suspension using 4 uL topical drop to both eyes every 3 hrs for 9 hrs by microscopic analysis; format: functional
[16] = AUC (0 to last) in plasma of Brown Norway rat administered 0.3% suspension using 4 uL topical drop to both eyes every 3 hrs for 9 hrs over 10 days and single drop to each eye on day 11 by LC-MS/MS analysis; format: ADME; conditions: topical or ocular, 4 uL of 0.3% suspension per eye
Cynomolgus monkey [17] = experiment: Toxicity in cynomolgus monkey adnexa region of eye administered 0.5% suspension using 30 uL topical drop to both eyes every 3 hrs for 9 hrs over 5 days by slit lamp biomicroscopic method; design: species or system Macaca fascicularis; conditions: in vivo, topical_or_ocular
[18] = AUC (0 to last) in posterior eye cup of Brown Norway rat administered 0.3% suspension using 4 uL topical drop to both eyes every 3 hrs for 9 hrs over 10 days and single drop to each eye on day 11 by LC-MS/MS analysis; format: ADME; conditions: topical or ocular, 4 uL of 0.3% suspension per eye
[19] = Tmax in cynomolgus monkey plasma administered 0.5% suspension using 30 uL topical drop to both eyes every 3 hrs for 9 hrs over 5 days and single drop to each eye on day 6 by LC-MS/MS analysis; format: ADME, Macaca fascicularis; conditions: topical or ocular, 30 uL of 0.5% suspension per eye
[20] = Tmax in cynomolgus monkey plasma administered 0.5% suspension using 30 uL topical drop to both eyes as single dose by LC-MS/MS analysis; format: ADME, Macaca fascicularis; conditions: topical or ocular, 30 uL of 0.5% suspension per eye
[21] = molecular target: Tyrosine-protein kinase ABL1 (Homo sapiens, UniProt P00519); experiment: Inhibition of human ABL
[22] = AUC (0 to last) in plasma of Brown Norway rat administered 0.3% suspension using 4 uL topical drop to both eyes as single dose by LC-MS/MS analysis; format: ADME; design: dose 4 uL, time 0 - last, route ophthalmic; conditions: topical or ocular, 4 uL of 0.3% suspension per eye
[23] = AUC (0 to last) in cynomolgus monkey plasma administered 0.5% suspension using 30 uL topical drop to both eyes every 3 hrs for 9 hrs over 5 days and single drop to each eye on day 6 by LC-MS/MS analysis; format: ADME, Macaca fascicularis; conditions: topical or ocular, 30 uL of 0.5% suspension per eye
[24] = Cmax in cynomolgus monkey plasma administered 0.5% suspension using 30 uL topical drop to both eyes as single dose by LC-MS/MS analysis; format: ADME, Macaca fascicularis; design: dose 30 uL, route ophthalmic; conditions: topical or ocular, 30 uL of 0.5% suspension per eye
[25] = molecular target: Tyrosine-protein kinase Lyn (Homo sapiens, UniProt P07948); experiment: Inhibition of human LYN
Cynomolgus monkey [26] = experiment: Toxicity in cynomolgus monkey anterior region of eye administered 0.5% suspension using 30 uL topical drop to both eyes every 3 hrs for 9 hrs over 5 days by slit lamp biomicroscopic method; design: species or system Macaca fascicularis; conditions: in vivo, topical_or_ocular
[27] = Cmax in plasma of Brown Norway rat administered 0.3% suspension using 4 uL topical drop to both eyes every 3 hrs for 9 hrs over 10 days and single drop to each eye on day 11 by LC-MS/MS analysis; format: ADME; conditions: topical or ocular, 4 uL of 0.3% suspension per eye
[28] = Cmax in retina of Brown Norway rat administered 0.3% suspension using 4 uL topical drop to both eyes every 3 hrs for 9 hrs over 10 days and single drop to each eye on day 11 by LC-MS/MS analysis; format: ADME; conditions: topical or ocular, 4 uL of 0.3% suspension per eye
[29] = molecular target: Mast/stem cell growth factor receptor Kit (Homo sapiens, UniProt P10721); experiment: Inhibition of human KIT
[30] = Solubility of compound at pH 7.4; format: physicochemical; conditions: buffer
[31] = Cmax in plasma of Brown Norway rat administered 0.3% suspension using 4 uL topical drop to both eyes as single dose by LC-MS/MS analysis; format: ADME; design: dose 4 uL, route ophthalmic; conditions: topical or ocular, 4 uL of 0.3% suspension per eye
[32] = Tmax in cynomolgus monkey plasma administered 1% solution using 30 uL topical drop to both eyes as single dose by LC-MS/MS analysis; format: ADME, Macaca fascicularis; conditions: topical or ocular, 30 uL of 1% solution per eye
Rattus norvegicus [33] = experiment: Antiangiogenic activity in Brown Norway rat laser-induced choroidal neovascularization model assessed as inhibition of neovascularization administered topical drop to both eyes as qd by microscopic analysis; format: functional
[34] = AUC (0 to 6 hrs) in cynomolgus monkey plasma administered 1% suspension using 30 uL topical drop to both eyes as single dose by LC-MS/MS analysis; format: ADME, Macaca fascicularis; design: time < 6 hr, dose 30 uL, route ophthalmic; conditions: topical or ocular, 30 uL of 1% suspension per eye
[35] = Tmax in cynomolgus monkey plasma administered 1% suspension using 30 uL topical drop to both eyes as single dose by LC-MS/MS analysis; format: ADME, Macaca fascicularis; conditions: topical or ocular, 30 uL of 1% suspension per eye
[36] = Cmax in cynomolgus monkey plasma administered 1% solution using 30 uL topical drop to both eyes as single dose by LC-MS/MS analysis; format: ADME, Macaca fascicularis; design: dose 30 uL, route ophthalmic; conditions: topical or ocular, 30 uL of 1% solution per eye
Rattus norvegicus [37] = experiment: Antiangiogenic activity in Brown Norway rat laser-induced choroidal neovascularization model assessed as inhibition of neovascularization administered both eyes every 3 hrs for 9 hrs by microscopic analysis; format: functional
[38] = AUC (0 to 6 hrs) in cynomolgus monkey plasma administered 1% solution using 30 uL topical drop to both eyes as single dose by LC-MS/MS analysis; format: ADME, Macaca fascicularis; design: time < 6 hr, dose 30 uL, route ophthalmic; conditions: topical or ocular, 30 uL of 1% solution per eye
[39] = Half life in cynomolgus monkey plasma administered 1% suspension using 30 uL topical drop to both eyes as single dose by LC-MS/MS analysis; format: ADME, Macaca fascicularis; conditions: topical or ocular, 30 uL of 1% suspension per eye
[40] = Cmax in cynomolgus monkey plasma administered 1% suspension using 30 uL topical drop to both eyes as single dose by LC-MS/MS analysis; format: ADME, Macaca fascicularis; design: dose 30 uL, route ophthalmic; conditions: topical or ocular, 30 uL of 1% suspension per eye
[41] = Half life in cynomolgus monkey plasma administered 1% solution using 30 uL topical drop to both eyes as single dose by LC-MS/MS analysis; format: ADME, Macaca fascicularis; conditions: topical or ocular, 30 uL of 1% solution per eye
Rattus norvegicus [42] = experiment: Antiangiogenic activity in Brown Norway rat laser-induced choroidal neovascularization model assessed as inhibition of neovascularization administered both eyes every 4.5 hrs for 9 hrs by microscopic analysis; format: functional
Rattus norvegicus [43] = experiment: Antiangiogenic activity in Brown Norway rat laser-induced choroidal neovascularization model assessed as inhibition of neovascularization administered 3% suspension using 4 uL topical drop to both eyes every 4.5 hrs for 9 hrs by microscopic analysis; format: functional

Chain of Tyrosine-protein kinase ABL1 (P00519 whole entry): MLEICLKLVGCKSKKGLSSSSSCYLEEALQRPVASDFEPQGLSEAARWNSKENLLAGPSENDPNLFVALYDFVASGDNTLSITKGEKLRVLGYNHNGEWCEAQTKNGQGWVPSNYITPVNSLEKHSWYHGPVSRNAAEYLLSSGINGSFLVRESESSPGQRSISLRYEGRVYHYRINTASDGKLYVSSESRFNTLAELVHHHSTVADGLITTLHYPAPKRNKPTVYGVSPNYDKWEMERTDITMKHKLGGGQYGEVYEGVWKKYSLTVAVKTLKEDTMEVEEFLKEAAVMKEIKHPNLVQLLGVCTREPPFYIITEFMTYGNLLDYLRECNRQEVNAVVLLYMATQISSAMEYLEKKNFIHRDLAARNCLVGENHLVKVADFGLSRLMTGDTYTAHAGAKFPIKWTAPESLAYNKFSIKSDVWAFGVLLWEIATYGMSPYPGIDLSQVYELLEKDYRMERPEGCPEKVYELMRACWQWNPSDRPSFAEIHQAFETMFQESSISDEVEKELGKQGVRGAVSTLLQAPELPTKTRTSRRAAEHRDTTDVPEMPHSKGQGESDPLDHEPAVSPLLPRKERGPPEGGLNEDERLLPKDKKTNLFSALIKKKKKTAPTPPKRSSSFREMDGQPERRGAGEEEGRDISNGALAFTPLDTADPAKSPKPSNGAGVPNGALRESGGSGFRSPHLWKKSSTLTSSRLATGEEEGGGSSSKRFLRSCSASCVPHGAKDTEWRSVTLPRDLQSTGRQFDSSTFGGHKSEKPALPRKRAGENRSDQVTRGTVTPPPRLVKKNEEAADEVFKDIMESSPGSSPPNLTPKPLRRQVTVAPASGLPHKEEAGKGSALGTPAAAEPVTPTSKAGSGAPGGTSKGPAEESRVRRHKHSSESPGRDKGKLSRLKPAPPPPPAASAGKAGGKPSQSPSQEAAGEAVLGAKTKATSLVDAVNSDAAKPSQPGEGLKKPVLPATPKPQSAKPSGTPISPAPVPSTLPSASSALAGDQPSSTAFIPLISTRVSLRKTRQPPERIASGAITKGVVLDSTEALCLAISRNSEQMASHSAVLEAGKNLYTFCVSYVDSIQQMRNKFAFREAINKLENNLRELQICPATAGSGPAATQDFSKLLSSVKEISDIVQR
Chain of Platelet-derived growth factor receptor alpha (P16234 whole entry): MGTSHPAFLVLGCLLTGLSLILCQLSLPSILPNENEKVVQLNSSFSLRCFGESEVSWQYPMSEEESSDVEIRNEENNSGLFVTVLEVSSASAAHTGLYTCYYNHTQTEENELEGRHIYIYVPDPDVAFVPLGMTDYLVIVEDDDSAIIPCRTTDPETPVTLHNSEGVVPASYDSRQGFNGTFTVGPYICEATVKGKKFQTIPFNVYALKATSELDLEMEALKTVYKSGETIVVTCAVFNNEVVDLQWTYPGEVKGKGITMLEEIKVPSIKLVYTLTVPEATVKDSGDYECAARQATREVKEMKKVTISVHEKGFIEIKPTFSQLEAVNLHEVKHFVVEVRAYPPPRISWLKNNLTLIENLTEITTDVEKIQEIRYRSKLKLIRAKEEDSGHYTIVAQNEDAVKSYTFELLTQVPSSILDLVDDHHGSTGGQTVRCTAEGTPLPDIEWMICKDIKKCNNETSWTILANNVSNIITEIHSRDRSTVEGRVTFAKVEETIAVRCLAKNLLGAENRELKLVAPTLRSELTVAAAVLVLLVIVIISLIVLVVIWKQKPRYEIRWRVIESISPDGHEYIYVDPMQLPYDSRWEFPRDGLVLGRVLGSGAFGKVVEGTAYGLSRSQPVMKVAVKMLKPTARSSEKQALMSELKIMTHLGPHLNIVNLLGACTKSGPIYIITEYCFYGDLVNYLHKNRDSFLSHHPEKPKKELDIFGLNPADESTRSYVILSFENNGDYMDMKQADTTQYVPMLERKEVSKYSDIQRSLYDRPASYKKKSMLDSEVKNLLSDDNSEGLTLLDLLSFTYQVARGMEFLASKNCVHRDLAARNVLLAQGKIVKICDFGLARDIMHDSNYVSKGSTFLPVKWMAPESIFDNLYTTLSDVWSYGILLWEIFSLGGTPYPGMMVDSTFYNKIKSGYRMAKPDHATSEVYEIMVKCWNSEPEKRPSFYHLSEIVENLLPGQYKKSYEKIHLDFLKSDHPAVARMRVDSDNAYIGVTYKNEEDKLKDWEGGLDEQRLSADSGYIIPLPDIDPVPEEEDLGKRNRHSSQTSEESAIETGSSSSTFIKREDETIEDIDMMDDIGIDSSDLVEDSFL
Chain of Tyrosine-protein kinase Lyn (P07948 whole entry): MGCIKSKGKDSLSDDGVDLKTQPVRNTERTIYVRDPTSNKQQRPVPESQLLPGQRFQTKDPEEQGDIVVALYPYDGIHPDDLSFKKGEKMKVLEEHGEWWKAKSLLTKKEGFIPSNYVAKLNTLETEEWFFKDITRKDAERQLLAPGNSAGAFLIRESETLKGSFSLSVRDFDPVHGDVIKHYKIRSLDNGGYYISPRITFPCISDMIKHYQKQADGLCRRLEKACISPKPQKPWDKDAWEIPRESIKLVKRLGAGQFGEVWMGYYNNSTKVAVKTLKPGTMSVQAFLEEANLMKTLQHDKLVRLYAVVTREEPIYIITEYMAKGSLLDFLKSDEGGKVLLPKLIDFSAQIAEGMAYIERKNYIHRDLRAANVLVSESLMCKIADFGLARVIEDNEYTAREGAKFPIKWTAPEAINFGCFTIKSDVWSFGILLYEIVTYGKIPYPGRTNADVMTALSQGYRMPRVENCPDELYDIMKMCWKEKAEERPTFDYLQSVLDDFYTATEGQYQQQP
Chain of Mast/stem cell growth factor receptor Kit (P10721 whole entry): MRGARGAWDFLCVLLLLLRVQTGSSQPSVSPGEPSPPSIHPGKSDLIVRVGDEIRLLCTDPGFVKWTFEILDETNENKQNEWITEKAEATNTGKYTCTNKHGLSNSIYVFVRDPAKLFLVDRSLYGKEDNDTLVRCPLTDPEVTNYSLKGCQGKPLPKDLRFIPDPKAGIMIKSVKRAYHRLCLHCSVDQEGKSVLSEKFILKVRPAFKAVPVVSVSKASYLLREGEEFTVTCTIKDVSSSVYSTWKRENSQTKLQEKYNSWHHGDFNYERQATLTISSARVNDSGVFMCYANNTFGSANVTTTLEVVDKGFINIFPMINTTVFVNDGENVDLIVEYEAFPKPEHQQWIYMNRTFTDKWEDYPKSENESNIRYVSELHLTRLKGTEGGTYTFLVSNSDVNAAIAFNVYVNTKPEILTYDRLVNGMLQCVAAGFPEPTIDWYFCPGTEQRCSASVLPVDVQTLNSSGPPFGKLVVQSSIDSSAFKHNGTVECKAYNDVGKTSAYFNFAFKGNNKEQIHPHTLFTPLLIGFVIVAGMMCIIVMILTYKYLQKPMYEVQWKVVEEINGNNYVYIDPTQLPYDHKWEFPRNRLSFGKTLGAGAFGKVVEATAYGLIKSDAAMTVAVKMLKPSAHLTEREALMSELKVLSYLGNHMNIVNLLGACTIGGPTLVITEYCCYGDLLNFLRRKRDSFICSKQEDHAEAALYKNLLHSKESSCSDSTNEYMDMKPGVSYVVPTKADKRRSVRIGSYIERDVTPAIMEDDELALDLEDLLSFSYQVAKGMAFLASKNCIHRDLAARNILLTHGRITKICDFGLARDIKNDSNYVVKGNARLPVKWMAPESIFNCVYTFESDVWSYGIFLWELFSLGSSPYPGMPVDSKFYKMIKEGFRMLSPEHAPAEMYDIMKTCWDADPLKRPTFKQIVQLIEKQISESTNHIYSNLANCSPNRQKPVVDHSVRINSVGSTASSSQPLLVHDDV
Chain of Proto-oncogene tyrosine-protein kinase receptor Ret (P07949 whole entry): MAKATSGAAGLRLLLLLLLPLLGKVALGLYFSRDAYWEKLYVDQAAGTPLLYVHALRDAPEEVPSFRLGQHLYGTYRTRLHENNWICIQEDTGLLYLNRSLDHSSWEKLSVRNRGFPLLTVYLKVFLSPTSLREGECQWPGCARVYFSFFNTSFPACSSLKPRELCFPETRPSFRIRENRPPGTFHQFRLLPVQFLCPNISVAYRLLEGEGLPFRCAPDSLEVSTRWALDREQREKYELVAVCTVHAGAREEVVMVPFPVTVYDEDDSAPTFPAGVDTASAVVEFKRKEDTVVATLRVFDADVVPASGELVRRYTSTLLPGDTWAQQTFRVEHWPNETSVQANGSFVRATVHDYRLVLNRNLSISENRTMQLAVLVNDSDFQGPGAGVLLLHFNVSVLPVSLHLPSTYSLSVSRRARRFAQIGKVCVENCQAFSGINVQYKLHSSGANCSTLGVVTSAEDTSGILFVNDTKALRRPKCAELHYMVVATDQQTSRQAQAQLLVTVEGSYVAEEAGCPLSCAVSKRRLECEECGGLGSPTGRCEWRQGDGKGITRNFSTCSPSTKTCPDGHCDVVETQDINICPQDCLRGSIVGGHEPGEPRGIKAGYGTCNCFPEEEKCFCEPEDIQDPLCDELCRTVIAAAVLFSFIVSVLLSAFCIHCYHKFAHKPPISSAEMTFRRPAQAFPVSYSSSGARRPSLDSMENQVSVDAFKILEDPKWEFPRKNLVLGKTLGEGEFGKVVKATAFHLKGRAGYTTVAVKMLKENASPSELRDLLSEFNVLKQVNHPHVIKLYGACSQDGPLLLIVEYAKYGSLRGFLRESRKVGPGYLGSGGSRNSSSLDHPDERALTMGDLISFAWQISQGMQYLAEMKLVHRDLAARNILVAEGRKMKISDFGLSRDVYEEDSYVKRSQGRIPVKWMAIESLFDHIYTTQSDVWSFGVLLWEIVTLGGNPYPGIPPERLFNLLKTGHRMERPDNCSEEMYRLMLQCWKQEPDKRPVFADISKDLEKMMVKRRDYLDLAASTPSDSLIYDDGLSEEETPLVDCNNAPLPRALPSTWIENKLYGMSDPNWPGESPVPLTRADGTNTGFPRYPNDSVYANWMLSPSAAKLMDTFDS

CNCc1cc(Oc2ccc3c(ccn3C(=O)Nc3cc(C(C)C)[nH]n3)c2)ncn1
microsomal CLint at 1 µM [1]: 52.3 µL/min/mg

O=C(Nc1cc(C2(CO)CC2)on1)n1ccc2cc(Oc3ncnc4c3CNC4)ccc21
inhibition (Mus musculus): inactive

CC(C)(CO)c1cc(NC(=O)n2ccc3cc(Oc4ncnc5c4CNC5)ccc32)no1
inhibition (Mus musculus): inactive

CC(=O)N1Cc2ncnc(Oc3ccc4c(ccn4C(=O)Nc4cc(C5CC5)on4)c3)c2C[C@@H]1C
Cmax [2]: 4730 nM
Cmax [3]: 2860 nM
AUC(0-t) [4]: 0.22 µM·h
AUC(0-t) [5]: 1.07 µM·h
IC50 [6]: < 500 nM
Cmax [7]: 150 nM
IC50 [8]: < 500 nM
Cmax [9]: 228 nM
AUC(0-t) [10]: 0.764 µM·h
inhibition (INH) (Rattus norvegicus [11]): 55%
Activity (Cynomolgus monkey [12]): Non-Toxic
concentration (Plasma): 84.4 nM
concentration at 24 h [13]: 64 nM
AUC(0-t) [14]: 8.97 µM·h
inhibition (INH) (Rattus norvegicus [15]): 50%
AUC(0-t) [16]: 0.923 µM·h
Activity (Cynomolgus monkey [17]): Non-Toxic
AUC(0-t) [18]: 29.5 µM·h
Tmax [19]: 3 h
Tmax [20]: 11 h
IC50 [21]: < 500 nM
AUC(0-t) [22]: 0.449 µM·h
AUC(0-t) [23]: 2.51 µM·h
Cmax [24]: 65.8 nM
IC50 [25]: < 500 nM
Activity (Cynomolgus monkey [26]): Non-Toxic
Cmax [27]: 78.6 nM
Cmax [28]: 138 nM
IC50 [29]: < 500 nM
solubility [30]: 0.6 µM (≈ 0.284 µg/mL)
Cmax [31]: 51.6 nM

CNCc1cc(Oc2ccc3c(ccn3C(=O)Nc3cccc(C(F)(F)F)c3)c2)ncn1
microsomal CLint at 1 µM [1]: 43 µL/min/mg

CNCc1cc(Oc2ccc3c(ccn3C(=O)Nc3cc(C(F)(F)F)n(C)n3)c2)ncn1
Cmax [2]: 31800 nM
Cmax [3]: 5690 nM
AUC(0-t) [4]: 4.63 µM·h
Tmax [32]: 0.67 h
ED50 (Rattus norvegicus [33]): 1.4%
AUC(0-t) at 6 h [34]: 0.0227 µM·h
Tmax [35]: 1.67 h
Cmax [7]: 683 nM
Cmax [36]: 26.9 nM
AUC(0-t) [10]: 14.3 µM·h
AUC(0-t) [14]: 52 µM·h
ED50 (Rattus norvegicus [37]): 0.5%
ED90 (Rattus norvegicus [37]): 1.2%
AUC(0-t) [16]: 0.0244 µM·h
AUC(0-t) at 6 h [38]: 0.0644 µM·h
microsomal CLint at 1 µM [1]: 156 µL/min/mg
AUC(0-t) [18]: 515 µM·h
half-life [39]: 4.38 h
AUC(0-t) [22]: 0.0343 µM·h
Cmax [40]: 5.38 nM
Cmax [27]: 32.1 nM
half-life [41]: 1.61 h
Cmax [28]: 1910 nM
ED50 (Rattus norvegicus [42]): 1%
ED90 (Rattus norvegicus [42]): 2.6%
inhibition (INH) (Rattus norvegicus [43]): 94%
Cmax [31]: 36.6 nM

O=C(Nc1cc(C2CC2)on1)n1ccc2cc(Oc3ncnc4c3CCNC4)ccc21
inhibition (Mus musculus): inactive
